Results from patent publication US10183039B2, “Methods for the production of collagen IV” (Vanderbilt University, priority 2013, dated 2019).

What was measured:
peroxidasin = molecular target: T1, peroxidasin (Mus musculus, UniProt Q3UQ28); assay: In vitro basement membrane (uncrosslinked PFHR-9 matrix) reaction with halides and H2O2; type: biochemical
T1 construct: Cultured murine PFHR9 cells synthesize collagen IV networks that contain sulfilimine crosslinks due to the activity of PXDN; endogenous in cells; host or cells: PFHR-9 cells (isolated matrix from KI-treated culture)
T1 sequence (Q3UQ28 24-1475): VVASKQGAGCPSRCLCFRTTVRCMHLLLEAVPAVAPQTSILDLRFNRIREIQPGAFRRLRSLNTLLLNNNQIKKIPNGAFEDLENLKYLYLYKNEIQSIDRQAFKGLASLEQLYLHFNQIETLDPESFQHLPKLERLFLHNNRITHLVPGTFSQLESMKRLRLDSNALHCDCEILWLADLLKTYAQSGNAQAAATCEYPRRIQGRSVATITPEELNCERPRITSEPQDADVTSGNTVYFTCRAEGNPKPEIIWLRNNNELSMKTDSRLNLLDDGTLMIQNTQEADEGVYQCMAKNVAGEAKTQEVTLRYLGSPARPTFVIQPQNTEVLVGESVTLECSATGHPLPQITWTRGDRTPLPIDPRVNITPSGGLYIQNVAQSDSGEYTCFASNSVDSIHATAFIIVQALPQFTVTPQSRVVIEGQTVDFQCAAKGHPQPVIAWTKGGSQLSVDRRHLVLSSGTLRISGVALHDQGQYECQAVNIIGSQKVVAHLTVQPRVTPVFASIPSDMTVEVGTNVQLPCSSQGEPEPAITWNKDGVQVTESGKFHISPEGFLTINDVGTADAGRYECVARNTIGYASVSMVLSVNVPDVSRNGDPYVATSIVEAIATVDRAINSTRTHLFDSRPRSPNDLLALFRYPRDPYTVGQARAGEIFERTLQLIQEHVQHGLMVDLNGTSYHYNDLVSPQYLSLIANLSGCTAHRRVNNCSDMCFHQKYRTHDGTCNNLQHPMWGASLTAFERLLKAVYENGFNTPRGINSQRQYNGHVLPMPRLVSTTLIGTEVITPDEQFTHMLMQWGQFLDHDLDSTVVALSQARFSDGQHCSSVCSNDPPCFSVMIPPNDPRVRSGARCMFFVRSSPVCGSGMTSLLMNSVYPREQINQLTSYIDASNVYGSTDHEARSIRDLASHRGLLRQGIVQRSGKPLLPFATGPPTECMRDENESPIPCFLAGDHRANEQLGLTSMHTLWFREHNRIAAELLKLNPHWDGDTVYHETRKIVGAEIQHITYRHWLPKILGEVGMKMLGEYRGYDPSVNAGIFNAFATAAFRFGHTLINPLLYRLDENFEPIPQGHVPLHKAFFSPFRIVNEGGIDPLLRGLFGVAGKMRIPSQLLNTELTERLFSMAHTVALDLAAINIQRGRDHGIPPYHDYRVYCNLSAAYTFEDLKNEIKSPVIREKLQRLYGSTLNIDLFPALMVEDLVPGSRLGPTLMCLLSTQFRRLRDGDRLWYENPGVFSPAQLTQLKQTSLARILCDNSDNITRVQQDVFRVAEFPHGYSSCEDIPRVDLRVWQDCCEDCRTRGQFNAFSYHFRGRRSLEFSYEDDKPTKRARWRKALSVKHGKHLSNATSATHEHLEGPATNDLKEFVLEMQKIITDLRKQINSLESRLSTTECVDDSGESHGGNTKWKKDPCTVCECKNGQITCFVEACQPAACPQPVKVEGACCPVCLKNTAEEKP
Experimental: (FIG. 8A) Matrix pellets isolated from KI-treated PFHR9 cell culture were extensively washed into 10 mM phosphate buffer (pH 7.4) supplemented with 100 mM KF to maintain ionic strength. Potassium salts of Cl— or Br— were added in indicated amounts. 1 hr reactions at 37° C. were initiated by addition of H2O2 to 1 mM and stopped by freezing at −20° C. Coomassie blue-stained gels after collagenase digestion of the samples and SDS-PAGE (FIG. 8B) Schematic of Br-Free chloride salt purification apparatus and setup. […] Reagent KCl was commercially obtained and unaltered prior to analysis. 100 mM solutions were made with 18MΩ deionized water. (FIG. 8C) Coomassie blue stained gel of collagenase digested PFHR-9 matrix reaction assay. Reaction buffered contained 10 mM phosphate buffer (pH 7.4), 100 mM Br-Free or Commercially obtained reagent grade KCl, as well as 1 mM H2O2 and 200 μM PHG where appropriate. (FIG. 8D) SDS-PAGE and coomassie blue stain of hPXDN (27.25 nM) and NC1 domain (1.3 μM) reaction and subsequent densiometric quantitation of S═N bond formation stiochiometry in response to NaBr addition. hPXDN and PFHR-9 NC1 domain were prepared and purified as described (5), except with all buffers for all purification steps (dialysis, chromatography, gradient ultracentrifugation) made with Br-Free chloride salts. Reactions were run for 10 minutes at 37° C. with 10 μM H2O2 as the terminal oxidant. Dose-response curve run in the presence of 1× Br-Free PBS. Reactions were quenched with 0.2 mg/ml Catalase, 20 mM Methionine, and 1 mM PHG. EC50 value±95% C.I. from two independent experiments with each data point plotted and fit.
Uncrosslinked PFHR9 matrix was extensively washed into 10 mM phosphate buffer (pH 7.4) that was supplemented with 100 mM KF to maintain ionic strength. One hour reactions at 37° C. were initiated by addition of H2O2 to 1 mM and stopped by freezing at −20° C. […] Samples were digested with collagenase at 37° C. overnight and visualized by SDS-PAGE using 12% gels under non-reducing conditions with Coomassie staining.
PFHR-9 cells treated with potassium iodide (1-10 mM) to eliminate NC1 hexamer crosslinks were used for basement membrane isolation. To test halide dependency, the inventors established halide-free conditions by washing extensively (at least five times) with 10 mM sodium phosphate pH 7.4. To try to extract or inactivate endogenous basement membrane peroxidase activity, the inventors extracted the matrix preparation twice with 2M guanidine-Cl, 50 mM Tris-Cl pH 7.5 and 10 mM EDTA-Na pH 8 followed by extensive washing with 1×PBS. Basement membrane was resuspended in the desired buffer with or without cofactors and inhibitors to examine in vitro NC1 crosslinking under various conditions. Basement membranes were collagenase solubilized to delineate collagen IV NC1 sulfilimine crosslink formation with SDS-PAGE and Coomassie blue staining membrane was isolated, washed extensively and resuspended in 1×PBS. Azide (0-10 mM) and 1 mM H2O2 were added and allowed to react for 1 h at 37° C. The matrix was pelleted, washed extensively with 1×PBS and solubilized with 1×PBS plus 2% (w/v) SDS. Solubilized proteins were reacted with 100 μM Tris[(1-benzyl-1H-1,2,3-triazol-4-yl)methyl]amine (Anaspec), 1 mM Tris(2-carboxyethyl)phosphine hydrochloride (ThermoFisher Pierce), 1 mM cupric sulfate and 100 μM biotin alkyne (PEG4 carboxamide-propargyl biotin; Life Technologies) for 1 h at 37° C. Click chemistry reactions were quenched with 1 mM 3′-azido-3′-deoxythymidine (Sigma). For avidin-HRP detection, samples were electrophoresed under reducing conditions, transferred to nitrocellulose membranes and probed with streptavidin-HRP according to manufacturer instructions (ThermoFisher Pierce). To isolate biotinylated proteins, the inventors precipitated click reaction products with two volumes of cold acetone to remove reactants, washed them with 70% (v/v) acetone and then resolubilized them in 1×PBS plus 2% SDS.

[1] = increased salt concentrations (Fairbanks and Burch, 1970); cited from earlier work

## Cl [chloride]
peroxidasin
  halide concentration permitting enzymatic crosslinking within purified matrix: 100 mM
peroxidasin; 10 mM phosphate pH 7.4, 100 mM KF, 1 mM H2O2, 1 h at 37° C.
  S═N bond formation in isolated matrix: remained inactive until 100 mM
peroxidasin; 100 mM Br-free chloride salt, 1 mM H2O2, isolated PFHR-9 matrix
  dimer formation with bromide-free chloride as halide source: insufficient for the reaction
peroxidasin; H2O2 added to uncrosslinked basement membrane without other halides (FIG. 3B)
  halide concentration at which crosslinked dimeric subunits formed: ~100 mM
[1]
  half-life in the fly: ~5 h
